Measured values from the supplement of paper PMC10307832.

How the values were obtained:
Experiment in all cases: relative viability (nuclei count vs DMSO), 5 days (fraction); higher = more cells survive
[1] = compound: COC1=CC=C(C=C1)CN2C=CC3=C2C=C(C=C3)C(=O)NO + NC(=O)Nc1cc(-c2cccc(F)c2)sc1C(=O)N[C@H]1CCCNC1 [AZD7762] (partner 0.2 µM)
How it was run: (§1)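 Cells from lung cancer lines were seeded into 1536-well plates and, one day later, dosed by pin tool. Treatments were either a single drug or a fixed dose of an anchor drug with five library-drug doses (not always all listed) in √10 steps. After 5 days, nuclei were stained in a one-step fixation (final 0.05% Triton X-100, 1% formaldehyde, 1 ug/ml Hoechst) and counted on 4× images, and relative viability is the treated-to-vehicle nuclei ratio, as the median of duplicate plates.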

[2] = compound: COC1=CC=C(C=C1)CN2C=CC3=C2C=C(C=C3)C(=O)NO + Cc1cc(Nc2cc(N3CCN(C)CC3)nc(Sc3ccc(NC(=O)C4CC4)cc3)n2)n[nH]1 [Tozasertib] (partner 0.1 µM)
How it was run: as §1

[3] = compound: COC1=CC=C(C=C1)CN2C=CC3=C2C=C(C=C3)C(=O)NO + Nc1nc2[nH]cc(CCc3ccc(C(=O)N[C@@H](CCC(=O)O)C(=O)O)cc3)c2c(=O)[nH]1 [Pemetrexed] (partner 0.2 µM)
How it was run: as §1

Veliparib + Phenformin = compound: C[C@]1(c2nc3c(C(N)=O)cccc3[nH]2)CCCN1 [Veliparib] + N=C(N)NC(=N)NCCc1ccccc1 [Phenformin] (partner 250 µM)
How it was run: as §1

HOP-62
relative viability ([1]; first compound 0.08 µM): 0.358
relative viability ([1]; first compound 0.253 µM): 0.691
relative viability ([1]; first compound 0.8 µM): 0.72
relative viability ([1]; first compound 2.53 µM): 0.554
relative viability ([1]; first compound 8 µM): 0.484
relative viability ([2]; first compound 0.08 µM): 0.304
relative viability ([2]; first compound 0.253 µM): 0.353
relative viability ([2]; first compound 0.8 µM): 0.392
relative viability ([2]; first compound 2.53 µM): 0.33
relative viability ([2]; first compound 8 µM): 0.349
relative viability ([3]; first compound 0.08 µM): 0.278
relative viability ([3]; first compound 0.253 µM): 0.454
relative viability ([3]; first compound 0.8 µM): 0.31
relative viability ([3]; first compound 2.53 µM): 0.244
relative viability ([3]; first compound 8 µM): 0.35
relative viability (Veliparib + Phenformin; first compound 0.02 µM): 0.514
relative viability (Veliparib + Phenformin; first compound 0.06325 µM): 0.61
relative viability (Veliparib + Phenformin; first compound 0.2 µM): 0.61
relative viability (Veliparib + Phenformin; first compound 0.6325 µM): 0.613
relative viability (Veliparib + Phenformin; first compound 2 µM): 0.723

LC-2-ad
relative viability ([1]; first compound 0.08 µM): 0.905
relative viability ([1]; first compound 0.253 µM): 0.874
relative viability ([1]; first compound 0.8 µM): 0.865
relative viability ([1]; first compound 2.53 µM): 0.898
relative viability ([1]; first compound 8 µM): 0.835
relative viability ([2]; first compound 0.08 µM): 0.384
relative viability ([2]; first compound 0.253 µM): 0.46
relative viability ([2]; first compound 0.8 µM): 0.485
relative viability ([2]; first compound 2.53 µM): 0.411
relative viability ([2]; first compound 8 µM): 0.382
relative viability ([3]; first compound 0.08 µM): 0.283
relative viability ([3]; first compound 0.253 µM): 0.292
relative viability ([3]; first compound 0.8 µM): 0.307
relative viability ([3]; first compound 2.53 µM): 0.303
relative viability ([3]; first compound 8 µM): 0.261
relative viability (Veliparib + Phenformin; first compound 0.06325 µM): 0.551
relative viability (Veliparib + Phenformin; first compound 0.2 µM): 0.631
relative viability (Veliparib + Phenformin; first compound 0.6325 µM): 0.589
relative viability (Veliparib + Phenformin; first compound 2 µM): 0.472

LCLC-97TM1
relative viability ([1]; first compound 0.253 µM): 0.267
relative viability ([1]; first compound 0.8 µM): 0.205
relative viability ([1]; first compound 2.53 µM): 0.162
relative viability ([1]; first compound 8 µM): 0.188
relative viability ([2]; first compound 0.08 µM): 0.16
relative viability ([2]; first compound 0.253 µM): 0.219
relative viability ([2]; first compound 0.8 µM): 0.193
relative viability ([2]; first compound 2.53 µM): 0.196
relative viability ([2]; first compound 8 µM): 0.209
relative viability ([3]; first compound 0.253 µM): 0.192
relative viability ([3]; first compound 0.8 µM): 0.182
relative viability ([3]; first compound 2.53 µM): 0.191
relative viability ([3]; first compound 8 µM): 0.144
relative viability (Veliparib + Phenformin; first compound 0.02 µM): 0.428
relative viability (Veliparib + Phenformin; first compound 0.06325 µM): 0.435
relative viability (Veliparib + Phenformin; first compound 0.2 µM): 0.439
relative viability (Veliparib + Phenformin; first compound 0.6325 µM): 0.428
relative viability (Veliparib + Phenformin; first compound 2 µM): 0.499

LCLC-103H
relative viability ([1]; first compound 0.08 µM): 0.764
relative viability ([1]; first compound 0.253 µM): 0.851
relative viability ([1]; first compound 0.8 µM): 0.809
relative viability ([1]; first compound 2.53 µM): 0.851
relative viability ([1]; first compound 8 µM): 0.679
relative viability ([2]; first compound 0.08 µM): 0.445
relative viability ([2]; first compound 0.253 µM): 0.523
relative viability ([2]; first compound 0.8 µM): 0.489
relative viability ([2]; first compound 2.53 µM): 0.534
relative viability ([2]; first compound 8 µM): 0.433
relative viability ([3]; first compound 0.08 µM): 0.475
relative viability ([3]; first compound 0.253 µM): 0.452
relative viability ([3]; first compound 0.8 µM): 0.482
relative viability ([3]; first compound 2.53 µM): 0.414
relative viability ([3]; first compound 8 µM): 0.425
relative viability (Veliparib + Phenformin; first compound 0.02 µM): 0.328
relative viability (Veliparib + Phenformin; first compound 0.06325 µM): 0.353
relative viability (Veliparib + Phenformin; first compound 0.2 µM): 0.341
relative viability (Veliparib + Phenformin; first compound 0.6325 µM): 0.325
relative viability (Veliparib + Phenformin; first compound 2 µM): 0.327

LK-2
relative viability ([1]; first compound 0.253 µM): 0.439
relative viability ([1]; first compound 0.8 µM): 0.45
relative viability ([1]; first compound 2.53 µM): 0.352
relative viability ([1]; first compound 8 µM): 0.375
relative viability ([2]; first compound 0.253 µM): 0.196
relative viability ([2]; first compound 0.8 µM): 0.197
relative viability ([2]; first compound 2.53 µM): 0.157
relative viability ([2]; first compound 8 µM): 0.174
relative viability ([3]; first compound 0.253 µM): 0.207
relative viability ([3]; first compound 0.8 µM): 0.354
relative viability ([3]; first compound 2.53 µM): 0.353
relative viability ([3]; first compound 8 µM): 0.243
relative viability (Veliparib + Phenformin; first compound 0.06325 µM): 0.516
relative viability (Veliparib + Phenformin; first compound 0.2 µM): 0.594
relative viability (Veliparib + Phenformin; first compound 0.6325 µM): 0.543
relative viability (Veliparib + Phenformin; first compound 2 µM): 0.481

LOU-NH91
relative viability ([1]; first compound 0.253 µM): 0.749
relative viability ([1]; first compound 0.8 µM): 0.756
relative viability ([1]; first compound 2.53 µM): 0.748
relative viability ([1]; first compound 8 µM): 0.705
relative viability ([2]; first compound 0.08 µM): 0.407
relative viability ([2]; first compound 0.253 µM): 0.693
relative viability ([2]; first compound 0.8 µM): 0.66
relative viability ([2]; first compound 2.53 µM): 0.64
relative viability ([2]; first compound 8 µM): 0.587
relative viability ([3]; first compound 0.253 µM): 0.417
relative viability ([3]; first compound 0.8 µM): 0.346
relative viability ([3]; first compound 2.53 µM): 0.372
relative viability ([3]; first compound 8 µM): 0.391
relative viability (Veliparib + Phenformin; first compound 0.02 µM): 0.604
relative viability (Veliparib + Phenformin; first compound 0.06325 µM): 0.457
relative viability (Veliparib + Phenformin; first compound 0.2 µM): 0.694
relative viability (Veliparib + Phenformin; first compound 0.6325 µM): 0.639
relative viability (Veliparib + Phenformin; first compound 2 µM): 0.682

NCI-H520
relative viability ([2]; first compound 0.253 µM): 0.453
relative viability ([2]; first compound 0.8 µM): 0.428
relative viability ([2]; first compound 2.53 µM): 0.449
relative viability ([2]; first compound 8 µM): 0.375
relative viability ([3]; first compound 0.08 µM): 0.525
relative viability ([3]; first compound 0.253 µM): 0.743
relative viability ([3]; first compound 0.8 µM): 0.641
relative viability ([3]; first compound 2.53 µM): 0.661
relative viability ([3]; first compound 8 µM): 0.648
relative viability (Veliparib + Phenformin; first compound 0.02 µM): 0.709
relative viability (Veliparib + Phenformin; first compound 0.06325 µM): 0.558
relative viability (Veliparib + Phenformin; first compound 0.2 µM): 0.761
relative viability (Veliparib + Phenformin; first compound 0.6325 µM): 0.538
relative viability (Veliparib + Phenformin; first compound 2 µM): 0.578

NCI-H661
relative viability ([2]; first compound 0.253 µM): 0.356
relative viability ([2]; first compound 0.8 µM): 0.369
relative viability ([2]; first compound 2.53 µM): 0.328
relative viability ([2]; first compound 8 µM): 0.329
relative viability ([3]; first compound 0.253 µM): 0.889
relative viability ([3]; first compound 0.8 µM): 0.836
relative viability ([3]; first compound 2.53 µM): 0.957
relative viability ([3]; first compound 8 µM): 0.954
relative viability (Veliparib + Phenformin; first compound 0.02 µM): 0.299
relative viability (Veliparib + Phenformin; first compound 0.06325 µM): 0.289
relative viability (Veliparib + Phenformin; first compound 0.2 µM): 0.25
relative viability (Veliparib + Phenformin; first compound 0.6325 µM): 0.274
relative viability (Veliparib + Phenformin; first compound 2 µM): 0.264

NCI-H727
relative viability ([1]; first compound 0.08 µM): 0.653
relative viability ([1]; first compound 0.253 µM): 0.538
relative viability ([1]; first compound 0.8 µM): 0.57
relative viability ([1]; first compound 2.53 µM): 0.503
relative viability ([1]; first compound 8 µM): 0.654
relative viability ([2]; first compound 0.08 µM): 0.592
relative viability ([2]; first compound 0.253 µM): 0.529
relative viability ([2]; first compound 0.8 µM): 0.772
relative viability ([2]; first compound 2.53 µM): 0.602
relative viability ([2]; first compound 8 µM): 0.625
relative viability (Veliparib + Phenformin; first compound 0.02 µM): 0.481
relative viability (Veliparib + Phenformin; first compound 0.06325 µM): 0.443
relative viability (Veliparib + Phenformin; first compound 0.2 µM): 0.549
relative viability (Veliparib + Phenformin; first compound 0.6325 µM): 0.483
relative viability (Veliparib + Phenformin; first compound 2 µM): 0.521
